Converted amounts (≈) assume the structure as drawn.
Tests used:
[1] = Drug loading of freeze-dried foam (disintegration of foam discs and quantification); format: physicochemical; conditions: for Loading efficiency (%): mean ± standard deviation
Description: The samples were incubated for 3 h at 37° C. and aliquots of 100 μL were withdrawn from each of the diffusion cells at specific time points and replenished with 100 μL warm (37° C.) hHBSS. The exact peptide dose was determined by disintegrating a 10 mm foam disc of known weight in 1 mL water for at least 1 h at RT. All samples were centrifuged (10,000 rpm/9279×g, 10 min, 4° C.) and the concentration of desmopressin in the supernatant was determined by reversed phase high performance liquid chromatography with UV detection (RP-HPLC-UV). Discs (10 mm in diameter) of NFF multilayered DDS were fixed in Ussing chamber […] […] 2 mL warm (37° C.) hHBSS without BSA pH 6.8 was added to each side of the sample. The samples were incubated for 3 h at 37° C. and aliquots of 100 μL were withdrawn from each of the diffusion cells at specific time points and replenished with 100 μl warm (37° C.) hHBSS without BSA pH 6.8.

[2] = Huang et al., 2020, cited from earlier work
C. albicans = conditions: Huang et al., 2020; cited from earlier work
[3] = drug loaded in foam, desmopressin at theoretical loading 29.13 μg/mg

SMILES	Loading efficiency (%) [1, 3] [%]	Log P [2]	aqueous solubility ([2]; in water) [µg/mL]	minimal fungicidal concentration (MFC) (C. albicans) [µg/mL]	minimal inhibitory concentration (MIC) (C. albicans) [µg/mL]	Loading efficiency (%) ([1]; desmopressin at theoretical loading 107.17 μg/mg)	specific loading of desmopressin ([1]; foam of NFF, discs of 10 mm)
Clc1ccccc1C(c1ccccc1)(c1ccccc1)n1ccnc1 [Clotrimazole]	110 ± 2	6.3	0.49 (≈ 1.42 µM)	4 (≈ 11.6 µM)	1 (≈ 2.9 µM)	–	–
NC(=O)CC[C@@H]1NC(=O)[C@H](Cc2ccccc2)NC(=O)[C@H](Cc2ccc(O)cc2)NC(=O)CCSSC[C@@H](C(=O)N2CCC[C@H]2C(=O)N[C@H](CCCN=C(N)N)C(=O)NCC(N)=O)NC(=O)[C@H](CC(N)=O)NC1=O [Desmopressin]	97 ± 1	–	–	–	–	117 ± 1	28.2±0.2 μg per mg of foam

Reference: patent US20240180998A1, “MULTILAYERED PATCH” (KØBENHAVNS UNIVERSITET, priority 2021, published 2024)
